Measured values: US20050267020A1, “Polypeptides derived from inducible hsp70 and pharmaceutical compositions containing the same” (priority 2001, published 2005)

Assays:
[1] = test system: HHD mice; test: Generation of CTL in HLA-A*0201 transgenic HHD mice (immunogenicity); assay type: in vivo, mouse
Procedure: Generation of CTL in HLA-transgenic mice. HLA-transgenic mice were injected subcutaneously at the base of the tail with 100 μg of peptide emulsified in incomplete Freund's adjuvant (IFA) in the presence of 140 μg of the I-A^b restricted HBVcore-derived T-helper epitope (128-140; sequence TPPAYRPPNAPIL). After 11 days, spleen cells (5×10^7 cells in 10 mL) were stimulated in vitro with peptide (10 μM). On day 6 of culture, the bulk responder populations were tested for specific cytotoxicity. Upon response, the CTL line was then weekly re-stimulated in vitro with 20×10^6 35Gy irradiated spleen cells in the presence of 1 to 0.1 μM peptide and 50 U/mL IL-2 (Proleukin, Chiron Corp.). Cytotoxicity was assayed 6 days after the last stimulation and TNF-α secretion 11-13 days after, with the addition of 50 U/mL IL-2 on day 7. HHD mice transgenic for HLA-A*0201 were used. B7B7 Kd mice and mice transgenic for HLA-A*0301 are used for the study of the HLA-B*0701 and HLA-A*0301 restricted peptides respectively.

[2] = test system: COS cells transfected with both Hsp70 and HHD expression vectors; test: Peptide processing assay on COS-transfected cells, TNF-α secretion by murine CTL; assay type: cell-based, simian
Description: After contact of murine CTL lines with transfected COS cell, CTL recognition of COS cells is expressed as CTL secretion of TNF-α dosed in supernatant (X Axis, TNF-α ranges from 0 to 500 pg/ml). The graphs represent TNF-α dosage by cytotoxic cell lines, respectively mCTL380, mCTL391 mCTL393 and mCTL134, after contact with COS cells. In each graph, upper to lower bars represent the different cells in contact with CTL, respectively: negative control (no COS cell), COS cells, COS cells transfected with Hsp70 expression plasmid, COS cells transfected with HHD expression plasmid, positive control (COS cells transfected with HHD and pulsed with the respective peptide), COS cells transfected with HHD and with Hsp70 expression plasmids.
Peptide Processing Assay on COS-Transfected Cells. 2.2×10^4 simian COS cells were plated in flat-bottom 96 well plates in DMEM 10% FCS, in quadruplicates for each condition. 18 hours later, the medium is discarded, and 100 ng of each DNA plasmid, encoding for Hsp70 and HLA class I molecules, is put in contact with COS cells in DMEM 10% Nuserum […] Chloroquine 10 mg/mL DEAE Dextran. After 4 hours of incubation at 37° C., transfection medium is discarded, and 50 μL PBS 10% DMSO is added for 2 minutes for integration of plasmids. It is then discarded and transfected COS cells are placed in DMEM 10% FCS for 40 hours. Transfected COS cells are then used with 5×10^4 murine CTL in a TNF-α secretion assay.
TNF-α Secretion Assay. Transfected COS cells on day 4 or 10^5 target tumor cells were plated in 50 μL RPMI 10% FCS and when necessary incubated with 10 μM peptide for 1 hour. In blocking experiments, anti-HLA class I antibody w6/32 or an irrelevant antibody were incubated with target cells for 1 h30. 5×10^4 T cells were then added in 50 μL RPMI 10% FCS and incubated for 6 hours. Each condition was tested in quadruplicates. 50 μL of the supernatant was collected. Standard dilutions were prepared in 50 μL with final doses of TNF-α (kindly provided by I. Apfler, Bender Wien, Austria) ranging from 10^4 to 0.08 pg/mL. On both the supernatants and the standards were added 50 μL of 3×10^4 TNF-α sensitive WEHI-164c13 cells. They were incubated for 16 hours at 37° C. (23). Inhibition of cell proliferation was evaluated by the MTT colorimetric method. Briefly, 50 μL of MTT at 2.5 mg/mL (Sigma-Aldrich) was added and incubated for 4 hours at 37° C. Cells were then lyzed with 100 μL of a pH4.7 33% N,N-dimethyl formamide (Sigma-Aldrich) 20% SDS solution in water. Two hours after cells lysis, OD was measured at 550 nm on a Dynatech MR5000 spectrophotometer. TNF-α quantitation was calculated by linear interpolation with the standard dilutions.

Row | Sequence | induction of specific cytotoxic T cell immune response in HHD mice [1] | processing of the peptide: recognition of Hsp70 + HHD transfected COS cells by the specific murine CTL line [2]
1 | LLLLDVAPL [HSP 391] | capable of generating a specific cytotoxic T cell immune response | are epitopes
2 | LMGDKSENV [HSP 380] | capable of generating a specific cytotoxic T cell immune response | are epitopes
3 | YLGYPVTNAV [HSP 134(10)] | capable of generating a specific cytotoxic T cell immune response | are epitopes
